Literature values as cited in PMC12495087 (ESMO Open, 2025).

System: vascular endothelial growth factor receptor 2
Conditions: cited from earlier work

## COc1cc2cc(-c3ccc(CC(=O)Nc4cc(C(C)(C)C(F)(F)F)no4)cn3)cnc2cc1OC [BOS172738]
  specificity to RET compared with vascular endothelial growth factor receptor 2: > 300 fold
